Test results published in patent US20220175793A1, “THE USE OF AN MGLUR5 ANTAGONIST FOR TREATING OPIOID ANALGESIC TOLERANCE” (NOVARTIS AG, priority 2019, published 2022).

Tested on: morphine tolerant mice
Assay: Opiate tolerance test (hot plate) in the mouse
Assay type: in vivo
Details: for foot-licking latency, change as compared with animals receiving morphine from Day 1 to Day 6: morphine 32 mg/kg i.p. twice daily Day 1 to Day 6, hot plate 54° C.
Procedure: The method, which detects tolerance to analgesic activity, follows that described by Fernandes et al (Naunyn-Schmiedeberg's Arch. Pharmacol., 297, 53-60, 1977).
Mice were placed onto a hot metal plate maintained at 54° C. surrounded by a Plexiglas cylinder (height: 13 cm; diameter: 19 cm) (Bioseb: model PE34). The latency to the first foot-lick was measured (maximum: 30 seconds). Morphine (32 mg/kg i.p.) or vehicle were administered twice daily for 6 days (at about 9:00 and 15:00), and then administered with morphine 8 mg/kg i.p. (or saline) 30 minutes before the test on Day 7 to assess morphine tolerance.
The test substances were each evaluated at 3 doses (1, 3 and 10 mg/kg for Compound (I) and 0.3, 1 and 3 mg/kg for Compound (II), administered in morphine tolerant mice p.o. acutely 60 minutes before the test on Day 7. The experiment included appropriate control groups to assess the potential effects of the test substances on morphine tolerance. Compound (III) was evaluated at 1 dose (10 mg/kg), administered under the same experimental conditions and was used as comparison substance.
10 mice were studied per group. The test was performed blind. Data were analysed by comparing treated groups with appropriate controls using unpaired Student's t tests.

[1] = 1 mg/kg p.o. acutely 60 minutes before the test on Day 7
[2] = 3 mg/kg p.o. acutely 60 minutes before the test on Day 7
[3] = 10 mg/kg p.o. acutely 60 minutes before the test on Day 7

Compound: COC(=O)N1CC[C@@H]2[C@H]1CCC[C@@]2(O)C#Cc1cccc(C)c1 [Compound (I), (−)-(3aR,4S,7aR)-4-Hydroxy-4-m-tolylethynyl-octahydro-indole-1-carboxylic acid methyl ester]
- expression of morphine tolerance (conclusion) (1 mg/kg p.o. acutely): significantly decrease the expression of morphine tolerance
- foot-licking latency, change as compared with animals receiving morphine from Day 1 to Day 6 [1]: +44%
- foot-licking latency, change as compared with animals receiving morphine from Day 1 to Day 6 [2]: no significant effects
- foot-licking latency, change as compared with animals receiving morphine from Day 1 to Day 6 [3]: no significant effects

Compound: COCc1cn(C2=NCC(=O)N3CCc4c(ccc(F)c4C4CC4)C3=C2)cn1 [Compound (II), 9-cyclopropyl-10-fluoro-2-(4-(methoxymethyl)-1H-imidazol-1-yl)-7,8-dihydro-[1,4]diazepino[7,1-a]isoquinolin-5(4H)-one]
- foot-licking latency, change as compared with animals receiving morphine from Day 1 to Day 6 (0.3 mg/kg p.o. acutely 60 minutes before the test on Day 7): no effects
- foot-licking latency, change as compared with animals receiving morphine from Day 1 to Day 6 [1]: +37%
- expression of morphine tolerance (conclusion) (3 mg/kg p.o. acutely): significantly decrease the expression of morphine tolerance
- foot-licking latency, change as compared with animals receiving morphine from Day 1 to Day 6 [2]: +38%

Compound: Cc1cccc(C#Cc2ccccc2)n1 [Compound (III), 2-methyl-6-(phenylethynyl)pyridine, reference compound]
- expression of morphine tolerance (conclusion) (10 mg/kg p.o. acutely): significantly decrease the expression of morphine tolerance
- foot-licking latency, change as compared with animals receiving morphine from Day 1 to Day 6 [3]: +32%
